{"source": "ChEMBL document CHEMBL3632580", "about": "“Structure-activity relationship of indoloquinoline analogs anti-MRSA” (2015)", "assay_type_in_all_cases": "functional", "key": {"Staphylococcus aureus [1]": {"tested_on": "Staphylococcus aureus", "experiment": "Antibacterial activity against methicillin-resistant Staphylococcus aureus OM584"}, "Staphylococcus aureus [2]": {"tested_on": "Staphylococcus aureus", "experiment": "Antibacterial activity against methicillin-resistant Staphylococcus aureus OM481"}, "P388": {"tested_on": "P388", "experiment": "Antitumor activity against mouse P388 cells implanted in CD2F1 mouse assessed as tumor growth inhibition at 6.25 mg/kg, ip relative to control"}}}
{"compound": "Cc1ccc(Nc2c3ccccc3nc3c2[nH]c2ccccc23)cc1", "values": [{"measurement": "MIC", "setting": "Staphylococcus aureus [1]", "value": 62.5, "unit": "µg/mL"}, {"measurement": "MIC", "setting": "Staphylococcus aureus [2]", "value": 62.5, "unit": "µg/mL"}]}
{"compound": "Clc1ccc(Nc2c3ccccc3nc3c2[nH]c2ccccc23)cc1", "values": [{"measurement": "MIC", "setting": "Staphylococcus aureus [1]", "value": 4, "unit": "µg/mL"}, {"measurement": "MIC", "setting": "Staphylococcus aureus [2]", "value": 8, "unit": "µg/mL"}]}
{"compound": "O=[N+]([O-])c1ccc(Nc2c3ccccc3nc3c2[nH]c2ccccc23)cc1", "values": [{"measurement": "MIC", "setting": "Staphylococcus aureus [1]", "value": "> 250", "unit": "µg/mL"}, {"measurement": "MIC", "setting": "Staphylococcus aureus [2]", "value": "> 250", "unit": "µg/mL"}]}
{"compound": "COc1ccc2[nH]c3c(Nc4ccc(O)cc4)c4ccccc4nc3c2c1", "values": [{"measurement": "MIC", "setting": "Staphylococcus aureus [1]", "value": 2, "unit": "µg/mL"}, {"measurement": "MIC", "setting": "Staphylococcus aureus [2]", "value": 2, "unit": "µg/mL"}]}
{"compound": "Oc1cccc(Nc2c3ccccc3nc3c2[nH]c2ccccc23)c1", "values": [{"measurement": "MIC", "setting": "Staphylococcus aureus [1]", "value": 8, "unit": "µg/mL"}, {"measurement": "MIC", "setting": "Staphylococcus aureus [2]", "value": 16, "unit": "µg/mL"}]}
{"compound": "COc1cccc(Nc2c3ccccc3nc3c2[nH]c2ccccc23)c1", "values": [{"measurement": "MIC", "setting": "Staphylococcus aureus [1]", "value": "> 250", "unit": "µg/mL"}, {"measurement": "MIC", "setting": "Staphylococcus aureus [2]", "value": "> 250", "unit": "µg/mL"}]}
{"compound": "CN(c1ccc(O)cc1)c1c2ccccc2nc2c1[nH]c1ccccc12", "values": [{"measurement": "MIC", "setting": "Staphylococcus aureus [1]", "value": "> 250", "unit": "µg/mL"}, {"measurement": "MIC", "setting": "Staphylococcus aureus [2]", "value": "> 250", "unit": "µg/mL"}]}
{"compound": "Cl.Oc1ccc(Nc2c3ccccc3nc3ccccc23)cc1", "values": [{"measurement": "MIC", "setting": "Staphylococcus aureus [1]", "value": "> 250", "unit": "µg/mL"}, {"measurement": "MIC", "setting": "Staphylococcus aureus [2]", "value": 250, "unit": "µg/mL"}]}
{"compound": "CC(=O)Oc1ccc(Nc2c3ccccc3nc3c2[nH]c2ccccc23)cc1.Cl", "values": [{"measurement": "MIC", "setting": "Staphylococcus aureus [1]", "value": 8, "unit": "µg/mL"}, {"measurement": "MIC", "setting": "Staphylococcus aureus [2]", "value": 16, "unit": "µg/mL"}]}
{"compound": "Clc1cccc(Nc2c3ccccc3nc3c2[nH]c2ccccc23)c1", "values": [{"measurement": "MIC", "setting": "Staphylococcus aureus [1]", "value": 125, "unit": "µg/mL"}, {"measurement": "MIC", "setting": "Staphylococcus aureus [2]", "value": 125, "unit": "µg/mL"}]}
{"compound": "Cn1c2ccccc2c2nc3ccccc3c(Nc3ccc(O)cc3)c21", "values": [{"measurement": "MIC", "setting": "Staphylococcus aureus [1]", "value": 8, "unit": "µg/mL"}, {"measurement": "MIC", "setting": "Staphylococcus aureus [2]", "value": 250, "unit": "µg/mL"}]}
{"compound": "Oc1ccc(Nc2c3ccccc3nc3c2oc2ccccc23)cc1", "values": [{"measurement": "MIC", "setting": "Staphylococcus aureus [1]", "value": 2, "unit": "µg/mL"}, {"measurement": "MIC", "setting": "Staphylococcus aureus [2]", "value": 2, "unit": "µg/mL"}]}
{"compound": "Cl.Oc1ccccc1Nc1c2ccccc2nc2c1[nH]c1ccccc12", "values": [{"measurement": "MIC", "setting": "Staphylococcus aureus [1]", "value": 16, "unit": "µg/mL"}, {"measurement": "MIC", "setting": "Staphylococcus aureus [2]", "value": 16, "unit": "µg/mL"}]}
{"compound": "COc1ccccc1Nc1c2ccccc2nc2c1[nH]c1ccccc12", "values": [{"measurement": "MIC", "setting": "Staphylococcus aureus [1]", "value": "> 250", "unit": "µg/mL"}, {"measurement": "MIC", "setting": "Staphylococcus aureus [2]", "value": "> 250", "unit": "µg/mL"}]}
{"compound": "Clc1ccccc1Nc1c2ccccc2nc2c1[nH]c1ccccc12", "values": [{"measurement": "MIC", "setting": "Staphylococcus aureus [1]", "value": 4, "unit": "µg/mL"}, {"measurement": "MIC", "setting": "Staphylococcus aureus [2]", "value": 8, "unit": "µg/mL"}]}
{"compound": "Oc1ccc(Nc2c3c(nc4ccccc24)-c2ccccc2C3)cc1", "values": [{"measurement": "MIC", "setting": "Staphylococcus aureus [1]", "value": "> 250", "unit": "µg/mL"}, {"measurement": "MIC", "setting": "Staphylococcus aureus [2]", "value": 250, "unit": "µg/mL"}]}
{"compound": "Cc1ccc2[nH]c3c(Nc4ccc(O)cc4)c4ccccc4nc3c2c1", "values": [{"measurement": "MIC", "setting": "Staphylococcus aureus [1]", "value": 2, "unit": "µg/mL"}, {"measurement": "MIC", "setting": "Staphylococcus aureus [2]", "value": 4, "unit": "µg/mL"}]}
{"compound": "Oc1ccc(Nc2c3ccccc3nc3c2[nH]c2ccc(Cl)cc23)cc1", "values": [{"measurement": "MIC", "setting": "Staphylococcus aureus [1]", "value": 4, "unit": "µg/mL"}, {"measurement": "MIC", "setting": "Staphylococcus aureus [2]", "value": 8, "unit": "µg/mL"}]}
{"compound": "CC1c2ccccc2-c2nc3ccccc3c(Nc3ccc(O)cc3)c21", "note": "(stereo unspecified)", "values": [{"measurement": "MIC", "setting": "Staphylococcus aureus [1]", "value": 4, "unit": "µg/mL"}, {"measurement": "MIC", "setting": "Staphylococcus aureus [2]", "value": 16, "unit": "µg/mL"}]}
{"compound": "c1ccc(Nc2c3ccccc3nc3c2[nH]c2ccccc23)cc1", "values": [{"measurement": "MIC", "setting": "Staphylococcus aureus [1]", "value": 4, "unit": "µg/mL"}, {"measurement": "MIC", "setting": "Staphylococcus aureus [2]", "value": 8, "unit": "µg/mL"}]}
{"compound": "COc1cc(O)ccc1Nc1c2ccccc2nc2c1[nH]c1ccccc12", "values": [{"measurement": "MIC", "setting": "Staphylococcus aureus [1]", "value": 16, "unit": "µg/mL"}, {"measurement": "MIC", "setting": "Staphylococcus aureus [2]", "value": 8, "unit": "µg/mL"}]}
{"compound": "Fc1ccc(Nc2c3ccccc3nc3c2[nH]c2ccccc23)cc1", "values": [{"measurement": "MIC", "setting": "Staphylococcus aureus [1]", "value": 8, "unit": "µg/mL"}, {"measurement": "MIC", "setting": "Staphylococcus aureus [2]", "value": 8, "unit": "µg/mL"}]}
{"compound": "COc1cc(NS(C)(=O)=O)ccc1Nc1c2ccccc2nc2c1[nH]c1ccccc12", "values": [{"measurement": "T/C", "setting": "P388", "value": 300, "unit": "%"}, {"measurement": "MIC", "setting": "Staphylococcus aureus [1]", "value": 16, "unit": "µg/mL"}, {"measurement": "MIC", "setting": "Staphylococcus aureus [2]", "value": 8, "unit": "µg/mL"}]}
{"compound": "COc1ccc(Nc2c3ccccc3nc3c2[nH]c2ccccc23)cc1", "values": [{"measurement": "MIC", "setting": "Staphylococcus aureus [1]", "value": 8, "unit": "µg/mL"}, {"measurement": "MIC", "setting": "Staphylococcus aureus [2]", "value": 16, "unit": "µg/mL"}]}
{"compound": "Oc1ccc(Nc2c3ccccc3nc3c2[nH]c2ccccc23)cc1", "values": [{"measurement": "MIC", "setting": "Staphylococcus aureus [1]", "value": 2, "unit": "µg/mL"}, {"measurement": "MIC", "setting": "Staphylococcus aureus [2]", "value": 4, "unit": "µg/mL"}]}
